PubChem BioAssay (NCI)
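The compound was tested at five concentrations on cells cultured in 96-well plates, with a 48-hour exposure period. TGI denotes the concentration required for complete inhibition of growth.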

Key:
Experiment in all cases: NCI anticancer screen, dose series, 48 h
SNB-19 CNS = tested on: SNB-19 CNS
HL-60(TB) leukemia = tested on: HL-60(TB) leukemia
OVCAR-3 ovarian = tested on: OVCAR-3 ovarian
TK-10 renal = tested on: TK-10 renal
T-47D breast = tested on: T-47D breast
NCI/ADR-RES ovarian = tested on: NCI/ADR-RES ovarian
HCT-15 colon = tested on: HCT-15 colon
ACHN renal = tested on: ACHN renal
HCC-2998 colon = tested on: HCC-2998 colon
RPMI-8226 leukemia = tested on: RPMI-8226 leukemia
KM12 colon = tested on: KM12 colon
MDA-MB-435 = tested on: MDA-MB-435
BT-549 breast = tested on: BT-549 breast
HS 578T breast = tested on: HS 578T breast
HOP-62 NSCLC = tested on: HOP-62 NSCLC
MALME-3M melanoma = tested on: MALME-3M melanoma
OVCAR-4 ovarian = tested on: OVCAR-4 ovarian
EKVX NSCLC = tested on: EKVX NSCLC
K-562 leukemia = tested on: K-562 leukemia
MDA-MB-231 breast = tested on: MDA-MB-231 breast

Row | SMILES | TGI (SNB-19 CNS) | TGI (HL-60(TB) leukemia) | TGI (OVCAR-3 ovarian) | TGI (TK-10 renal) | TGI (T-47D breast) | TGI (NCI/ADR-RES ovarian) | TGI (HCT-15 colon) | TGI (ACHN renal) | TGI (HCC-2998 colon) | TGI (RPMI-8226 leukemia) | TGI (KM12 colon) | TGI (MDA-MB-435) | TGI (BT-549 breast) | TGI (HS 578T breast) | TGI (HOP-62 NSCLC) | TGI (MALME-3M melanoma) | TGI (OVCAR-4 ovarian) | TGI (EKVX NSCLC) | TGI (K-562 leukemia) | TGI (MDA-MB-231 breast)
1 | NC(=O)/C=c1/c2ccccc2n2nc3ccccc3c12 | 49.3 µM | 7.58 µM | 49.1 µM | > 100 µM | > 100 µM | 50.7 µM | 40.8 µM | 29.1 µM | 36.8 µM | 29.1 µM | 56.5 µM | 35.1 µM | 95.9 µM | 87.6 µM | 77.2 µM | 53.4 µM | 39.4 µM | 42.7 µM | 53.2 µM | 7.52 µM
2 | CCOc1ccc(N=NS(=O)(=O)O)cc1 | > 100 µM | > 100 µM | > 100 µM | > 100 µM | > 100 µM | > 100 µM | > 100 µM | > 100 µM | > 100 µM | > 100 µM | > 100 µM | > 100 µM | > 100 µM | > 100 µM | > 100 µM | > 100 µM | > 100 µM | > 100 µM | > 100 µM | > 100 µM
3 | CC(=O)c1cccc(NC(=O)C(=O)C(c2cnc3ccc([N+](=O)[O-])cc3n2)[N+](=O)[O-])c1 (stereo not given) | > 100 µM | > 100 µM | > 100 µM | > 100 µM | > 100 µM | > 100 µM | > 100 µM | > 100 µM | > 100 µM | > 100 µM | > 100 µM | > 100 µM | > 100 µM | > 100 µM | > 100 µM | > 100 µM | > 100 µM | > 100 µM | > 100 µM | > 100 µM
4 | Oc1ccccc1C1=NOC(c2ccc(C(F)(F)F)cc2)C1 (stereo not given) | > 50 µM | > 50 µM | > 50 µM | > 16.2 µM | > 38.1 µM | > 50 µM | > 50 µM | > 50 µM | > 50 µM | > 50 µM | > 50 µM | > 50 µM | > 50 µM | > 50 µM | > 50 µM | > 50 µM | > 50 µM | > 50 µM | > 50 µM | > 50 µM
5 | COc1ccc2c(c1)CCCN2S(=O)(=O)c1ccccc1[N+](=O)[O-] | > 100 µM | 37.1 µM | > 92.3 µM | 97.1 µM | > 87.8 µM | > 85.6 µM | > 97.4 µM | > 100 µM | 84.5 µM | 71.3 µM | > 100 µM | 22 µM | 66.7 µM | > 97.1 µM | > 100 µM | > 86.3 µM | > 100 µM | > 91.9 µM | > 68.9 µM | > 100 µM
